tested on: DU-145 (prostate) cancer cell line; experiment: MTT cell viability assay, DU-145; assay type: cell-based, human; conditions: Homo sapiens, DU-145, 48 h, read-out: Cell growth %, DU-145, 10 µM, 48 h, MTT
Method: (§1) Cell lines were purchased from the American Type Culture Collection (ATCC). Cell lines MDA-MB-231, HTB-54, DU-145, and BEAS-2B were cultured in RPMI 1640 medium (Gibco, Thermo Fisher Scientific, Gaithersburg, MD, USA) supplemented with 10% fetal bovine serum (FBS; Gibco), 100 units/mL penicillin, and […] streptomycin (Gibco). HT-29 cell line was grown in McCoy’s 5A (Gibco), 10% FBS, 100 units/mL penicillin, and 100 μg/mL streptomycin. Cells were maintained at 37 °C and 5% CO2. The culture medium was changed every three days.
(§2) The cell viability of each compound was measured by MTT colorimetric assay. Each compound was dissolved in DMSO at a concentration of 0.01 M. Each compound was tested at two different concentrations (10 and 50 µM) in MDA-MB-231 (breast), HTB-54 (lung), DU-145 (prostate), and HT-29 (colon) human cancer cell lines. Serial dilutions were prepared with supplemented culture medium. […] IC50 and selectivity indexes (SI) were determined.
(§3) Briefly, 1 × 10^4 tumor cells per well were grown in 96-well plates for 24 h. Then, these cells were incubated for 48 h with either DMSO (control) or a different concentration of each of the tested compounds. The cell viability was determined by adding 20 μL of MTT two hours and a half before the termination point. After this time, the culture medium was removed. The resulting formazan crystals were dissolved in 50 μL of DMSO, and the absorbance was measured at 570 nm. Results are expressed as % cell growth. The data were obtained from at least three independent experiments performed in quadruplicate.

Row | Structure (SMILES) | activity at 10 µM
1 | C=CCNC(=O)c1cccc(C(=O)NC(=[Se])NCC=C)c1 [Compound 11.II, N^1-allyl-N^3-(allylcarbamoselenoyl)isophthalamide] | 93.8 ± 8%
2 | C=CCNC(=[Se])NC(=O)c1ccccc1 [Compound 5.II, N-(allylcarbamoselenoyl)benzamide] | 97.5 ± 18.5%

same assay, conditions: Homo sapiens, DU-145, 48 h, read-out: Cell growth %, DU-145, 50 µM, 48 h, MTT

Row | Structure (SMILES) | activity at 50 µM
3 | C=CCNC(=O)c1cccc(C(=O)NC(=[Se])NCC=C)c1 [Compound 11.II, N^1-allyl-N^3-(allylcarbamoselenoyl)isophthalamide] | 22 ± 5.8%
4 | C=CCNC(=[Se])NC(=O)c1ccccc1 [Compound 5.II, N-(allylcarbamoselenoyl)benzamide] | 10.3 ± 4.9%

tested on: MDA-MB-231 (breast) cancer cell line; experiment: MTT cell viability assay, MDA-MB-231; assay type: cell-based, human; conditions: Homo sapiens, MDA-MB-231, 48 h, read-out: Cell growth %, MDA-MB-231, 10 µM, 48 h, MTT
Method: as §1, §2, §3

Row | Structure (SMILES) | activity at 10 µM
5 | C=CCNC(=O)c1cccc(C(=O)NC(=[Se])NCC=C)c1 [Compound 11.II, N^1-allyl-N^3-(allylcarbamoselenoyl)isophthalamide] | 77.1 ± 10.1%
6 | C=CCNC(=[Se])NC(=O)c1ccccc1 [Compound 5.II, N-(allylcarbamoselenoyl)benzamide] | 80.4 ± 8.4%

same assay, conditions: Homo sapiens, MDA-MB-231, 48 h, read-out: Cell growth %, MDA-MB-231, 50 µM, 48 h, MTT

Row | Structure (SMILES) | activity at 50 µM
7 | C=CCNC(=O)c1cccc(C(=O)NC(=[Se])NCC=C)c1 [Compound 11.II, N^1-allyl-N^3-(allylcarbamoselenoyl)isophthalamide] | 14.7 ± 7.8%
8 | C=CCNC(=[Se])NC(=O)c1ccccc1 [Compound 5.II, N-(allylcarbamoselenoyl)benzamide] | 15.6 ± 6%

tested on: HT-29 (colon) cancer cell line; experiment: MTT cell viability assay, HT-29; assay type: cell-based; conditions: Homo sapiens, HT-29, 48 h, HT-29, 10 µM, read-out: Cell growth %
Method: as §1, §2, §3

Row | Structure (SMILES) | activity at 10 µM
9 | C=CCNC(=O)c1cccc(C(=O)NC(=[Se])NCC=C)c1 [Compound 11.II, N^1-allyl-N^3-(allylcarbamoselenoyl)isophthalamide] | 88.1 ± 4.8%
10 | C=CCNC(=[Se])NC(=O)c1ccccc1 [Compound 5.II, N-(allylcarbamoselenoyl)benzamide] | 100 ± 16.6%

same assay, conditions: Homo sapiens, HT-29, 48 h, HT-29, 50 µM, read-out: Cell growth %

Row | Structure (SMILES) | activity at 50 µM
11 | C=CCNC(=O)c1cccc(C(=O)NC(=[Se])NCC=C)c1 [Compound 11.II, N^1-allyl-N^3-(allylcarbamoselenoyl)isophthalamide] | 30.8 ± 4%
12 | C=CCNC(=[Se])NC(=O)c1ccccc1 [Compound 5.II, N-(allylcarbamoselenoyl)benzamide] | 23.9 ± 5%

tested on: HTB-54 (lung) cancer cell line; experiment: MTT cell viability assay, HTB-54; assay type: cell-based, human; conditions: Homo sapiens, HTB-54, 48 h, read-out: Cell growth %, HTB-54, 10 µM, 48 h, MTT
Method: as §1, §2, §3

Row | Structure (SMILES) | activity at 10 µM
13 | C=CCNC(=O)c1cccc(C(=O)NC(=[Se])NCC=C)c1 [Compound 11.II, N^1-allyl-N^3-(allylcarbamoselenoyl)isophthalamide] | 48.3 ± 6.9%
14 | C=CCNC(=[Se])NC(=O)c1ccccc1 [Compound 5.II, N-(allylcarbamoselenoyl)benzamide] | 67.6 ± 14.9%

same assay, conditions: Homo sapiens, HTB-54, 48 h, read-out: Cell growth %, HTB-54, 50 µM, 48 h, MTT

Row | Structure (SMILES) | activity at 50 µM
15 | C=CCNC(=O)c1cccc(C(=O)NC(=[Se])NCC=C)c1 [Compound 11.II, N^1-allyl-N^3-(allylcarbamoselenoyl)isophthalamide] | 5.94 ± 4.7%
16 | C=CCNC(=[Se])NC(=O)c1ccccc1 [Compound 5.II, N-(allylcarbamoselenoyl)benzamide] | 16.9 ± 4.1%

tested on: not listed separately; experiment: DPPH radical scavenging assay; assay type: biochemical; conditions: 0.003 mg/mL, 0 min
Method: Different methods are available to quantify the antioxidant capacity of natural or novel molecules. Notable among these are the ABTS^•+ and DPPH^• methods, which measure the quenching efficiency in vitro for known concentrations of preformed radicals. In this work, the DPPH^• colorimetric assay was carried out. Measurements were recorded on a BioTeck PowerWave XS spectrophotometer (BioTeck Instruments, Winooski, VT, USA) and data were collected using KCJunior v.1.41. software (BioTeck Instruments, Winooski, VT, USA). Compounds with potent activity were selected to further determine their protective effect against ROS-induced cell death caused by H2O2.
DPPH colorimetric assay was performed to determine the in vitro radical scavenging activity of the acylselenourea derivatives. DPPH assay was performed as described by Svinyarov. For each acylselenourea, a stock solution of 1 mg/mL in dimethyl sulfoxide (DMSO) was made, and these solutions were used to prepare the different concentrations employed in the assay. The compounds were tested at two different concentrations (0.003 and 0.03 mg/mL). Intermediate solutions were prepared in methanol and a volume of 100 µL of each was added to each well of the plate. Then, 100 µL of DPPH^• (previously prepared at a concentration of 0.04 mg/mL in methanol and preserved in the dark) was added to the previous methanolic acylselenourea solutions. The discoloration of the purple radical to the yellow reduced form was followed at 517 nm at different time points (0, 5, 15, 30, 60, 90, and 120 min). Ascorbic acid and trolox were used as positive controls. All measurements were carried out in triplicate. Results are expressed as the percentage of the radicals scavenged, calculated using the following formula: (1) % DPPH radical scavenging=Acontrol - Asample/Acontrol × 100 where Acontrol refers to the absorbance of the negative control and Asample refers to the absorbance of the tested compounds. Results are expressed as percentage of DPPH radical scavenging ± SD.

Row | Structure (SMILES) | inhibition
17 | C=CCNC(=O)c1cccc(C(=O)NC(=[Se])NCC=C)c1 [Compound 11.II, N^1-allyl-N^3-(allylcarbamoselenoyl)isophthalamide] | 0%
18 | C=CCNC(=[Se])NC(=O)c1ccccc1 [Compound 5.II, N-(allylcarbamoselenoyl)benzamide] | 1.3 ± 1.7%

same assay, conditions: 0.003 mg/mL, 5 min

Row | Structure (SMILES) | inhibition
19 | C=CCNC(=O)c1cccc(C(=O)NC(=[Se])NCC=C)c1 [Compound 11.II, N^1-allyl-N^3-(allylcarbamoselenoyl)isophthalamide] | 2.5 ± 1.4%
20 | C=CCNC(=[Se])NC(=O)c1ccccc1 [Compound 5.II, N-(allylcarbamoselenoyl)benzamide] | 4.5 ± 1.7%

same assay, conditions: 0.003 mg/mL, 15 min

Row | Structure (SMILES) | inhibition
21 | C=CCNC(=O)c1cccc(C(=O)NC(=[Se])NCC=C)c1 [Compound 11.II, N^1-allyl-N^3-(allylcarbamoselenoyl)isophthalamide] | 5.8 ± 1.2%
22 | C=CCNC(=[Se])NC(=O)c1ccccc1 [Compound 5.II, N-(allylcarbamoselenoyl)benzamide] | 7.5 ± 1.7%

same assay, conditions: 0.003 mg/mL, 30 min

Row | Structure (SMILES) | inhibition
23 | C=CCNC(=O)c1cccc(C(=O)NC(=[Se])NCC=C)c1 [Compound 11.II, N^1-allyl-N^3-(allylcarbamoselenoyl)isophthalamide] | 8.6 ± 0.9%
24 | C=CCNC(=[Se])NC(=O)c1ccccc1 [Compound 5.II, N-(allylcarbamoselenoyl)benzamide] | 10.4 ± 1.8%

same assay, conditions: 0.003 mg/mL, 60 min

Row | Structure (SMILES) | inhibition
25 | C=CCNC(=O)c1cccc(C(=O)NC(=[Se])NCC=C)c1 [Compound 11.II, N^1-allyl-N^3-(allylcarbamoselenoyl)isophthalamide] | 11.6 ± 1%
26 | C=CCNC(=[Se])NC(=O)c1ccccc1 [Compound 5.II, N-(allylcarbamoselenoyl)benzamide] | 13.9 ± 1.9%

same assay, conditions: 0.003 mg/mL, 90 min

Row | Structure (SMILES) | inhibition
27 | C=CCNC(=O)c1cccc(C(=O)NC(=[Se])NCC=C)c1 [Compound 11.II, N^1-allyl-N^3-(allylcarbamoselenoyl)isophthalamide] | 12.8 ± 0.8%
28 | C=CCNC(=[Se])NC(=O)c1ccccc1 [Compound 5.II, N-(allylcarbamoselenoyl)benzamide] | 16.2 ± 2%

same assay, conditions: 0.003 mg/mL, 120 min

Row | Structure (SMILES) | inhibition
29 | C=CCNC(=O)c1cccc(C(=O)NC(=[Se])NCC=C)c1 [Compound 11.II, N^1-allyl-N^3-(allylcarbamoselenoyl)isophthalamide] | 13.5 ± 0.7%
30 | C=CCNC(=[Se])NC(=O)c1ccccc1 [Compound 5.II, N-(allylcarbamoselenoyl)benzamide] | 17.8 ± 2.1%

same assay, conditions: 0.03 mg/mL

Row | Structure (SMILES) | time to reach the highest DPPH inhibition
31 | C=CCNC(=[Se])NC(=O)c1ccccc1 [Compound 5.II, N-(allylcarbamoselenoyl)benzamide] | 60 min

same assay, conditions: 0.03 mg/mL, 0 min

Row | Structure (SMILES) | inhibition
32 | C=CCNC(=O)c1cccc(C(=O)NC(=[Se])NCC=C)c1 [Compound 11.II, N^1-allyl-N^3-(allylcarbamoselenoyl)isophthalamide] | 11 ± 3%
33 | C=CCNC(=[Se])NC(=O)c1ccccc1 [Compound 5.II, N-(allylcarbamoselenoyl)benzamide] | 13.5 ± 1.3%

same assay, conditions: 0.03 mg/mL, 5 min

Row | Structure (SMILES) | inhibition
34 | C=CCNC(=O)c1cccc(C(=O)NC(=[Se])NCC=C)c1 [Compound 11.II, N^1-allyl-N^3-(allylcarbamoselenoyl)isophthalamide] | 38.5 ± 0.3%
35 | C=CCNC(=[Se])NC(=O)c1ccccc1 [Compound 5.II, N-(allylcarbamoselenoyl)benzamide] | 42.4 ± 1.5%

same assay, conditions: 0.03 mg/mL, 15 min

Row | Structure (SMILES) | inhibition
36 | C=CCNC(=O)c1cccc(C(=O)NC(=[Se])NCC=C)c1 [Compound 11.II, N^1-allyl-N^3-(allylcarbamoselenoyl)isophthalamide] | 56.8 ± 0.6%
37 | C=CCNC(=[Se])NC(=O)c1ccccc1 [Compound 5.II, N-(allylcarbamoselenoyl)benzamide] | 62.7 ± 0.8%

same assay, conditions: 0.03 mg/mL, 30 min

Row | Structure (SMILES) | inhibition
38 | C=CCNC(=O)c1cccc(C(=O)NC(=[Se])NCC=C)c1 [Compound 11.II, N^1-allyl-N^3-(allylcarbamoselenoyl)isophthalamide] | 70.1 ± 1%
39 | C=CCNC(=[Se])NC(=O)c1ccccc1 [Compound 5.II, N-(allylcarbamoselenoyl)benzamide] | 80.2 ± 1.1%

same assay, conditions: 0.03 mg/mL, 60 min

Row | Structure (SMILES) | inhibition
40 | C=CCNC(=O)c1cccc(C(=O)NC(=[Se])NCC=C)c1 [Compound 11.II, N^1-allyl-N^3-(allylcarbamoselenoyl)isophthalamide] | 83 ± 1%
41 | C=CCNC(=[Se])NC(=O)c1ccccc1 [Compound 5.II, N-(allylcarbamoselenoyl)benzamide] | 97.2 ± 0.7%

same assay, conditions: 0.03 mg/mL, 90 min

Row | Structure (SMILES) | inhibition
42 | C=CCNC(=O)c1cccc(C(=O)NC(=[Se])NCC=C)c1 [Compound 11.II, N^1-allyl-N^3-(allylcarbamoselenoyl)isophthalamide] | 89.6 ± 1.2%

same assay, conditions: 0.03 mg/mL, 120 min

Row | Structure (SMILES) | inhibition
43 | C=CCNC(=O)c1cccc(C(=O)NC(=[Se])NCC=C)c1 [Compound 11.II, N^1-allyl-N^3-(allylcarbamoselenoyl)isophthalamide] | 94.3 ± 1.2%
44 | C=CCNC(=[Se])NC(=O)c1ccccc1 [Compound 5.II, N-(allylcarbamoselenoyl)benzamide] | 97.7 ± 1%

same assay, conditions: acylselenourea analogs, 0.03 mg/mL, 90 min

Row | Structure (SMILES) | DPPH Inhibitory%
45 | C=CCNC(=[Se])NC(=O)c1ccccc1 [Compound 5.II, N-(allylcarbamoselenoyl)benzamide] | 97.4 ± 0.8%
